In ChEMBL document CHEMBL1201862, “PubChem BioAssay data set” (2004):
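96-well plates; 48 h exposure; 5 concentrations. Endpoints by linear interpolation between flanking doses. Not reached: highest tested concentration assigned. Here, GI50 denotes the concentration required for 50% inhibition of growth.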 Calls of active or inactive are those of the source. No stated cut-off is given here; in the data, active = GI50 up to about 1.1 µM and inactive = higher.

Assays:
Assay in all cases: NCI tumour cell line growth inhibition, 48 h
LOX IMVI = test system: LOX IMVI
SF-539 = test system: SF-539
CCRF-CEM = test system: CCRF-CEM
BT-549 = test system: BT-549
OVCAR-4 = test system: OVCAR-4
SK-OV-3 = test system: SK-OV-3
SN12C = test system: SN12C
A498 = test system: A498
K562 = test system: K562
SF-268 = test system: SF-268
NCI-H460 = test system: NCI-H460
MDA-MB-231 = test system: MDA-MB-231
SR = test system: SR
MDA-N = test system: MDA-N
HT-29 = test system: HT-29
ACHN = test system: ACHN
SF-295 = test system: SF-295
UACC-62 = test system: UACC-62
SW-620 = test system: SW-620
SNB-75 = test system: SNB-75
OVCAR-3 = test system: OVCAR-3
CAKI-1 = test system: CAKI-1
U-251 = test system: U-251
COLO 205 = test system: COLO 205
HCC 2998 = test system: HCC 2998
MCF7 = test system: MCF7
TK-10 = test system: TK-10
HOP-92 = test system: HOP-92
IGROV-1 = test system: IGROV-1
SK-MEL-28 = test system: SK-MEL-28
Hs-578T = test system: Hs-578T
RPMI-8226 = test system: RPMI-8226
MDA-MB-435 = test system: MDA-MB-435
OVCAR-8 = test system: OVCAR-8
HCT-15 = test system: HCT-15
NCI/ADR-RES = test system: NCI/ADR-RES
NCI-H226 = test system: NCI-H226
SNB-19 = test system: SNB-19
M14 = test system: M14
DU-145 = test system: DU-145
HL-60 = test system: HL-60
HOP-62 = test system: HOP-62
OVCAR-5 = test system: OVCAR-5
NCI-H522 = test system: NCI-H522
A549 = test system: A549
KM12 = test system: KM12
RXF 393 = test system: RXF 393
SK-MEL-2 = test system: SK-MEL-2
EKVX = test system: EKVX
T47D = test system: T47D
HCT-116 = test system: HCT-116
NCI-H23 = test system: NCI-H23
UACC-257 = test system: UACC-257
SK-MEL-5 = test system: SK-MEL-5
Malme-3M = test system: Malme-3M
786-0 = test system: 786-0
MOLT-4 = test system: MOLT-4
PC-3 = test system: PC-3
UO-31 = test system: UO-31

In the case of `CC1(C)C(=O)N(O)C(C)(C)N1O`, the GI50 (LOX IMVI) is reported as > 10 µM (inactive), the GI50 (SF-539) is reported as > 10 µM (inactive) and the GI50 (CCRF-CEM) is reported as > 10 µM (inactive). For the same compound, the GI50 (BT-549) was > 10 µM (inactive), the GI50 (OVCAR-4) was > 10 µM (inactive) and the GI50 (SK-OV-3) was > 10 µM (inactive). The GI50 (SN12C) was > 10 µM (inactive), the GI50 (A498) was > 10 µM (inactive) and the GI50 (K562) was > 10 µM (inactive). The GI50 (SF-268) was > 10 µM (inactive), the GI50 (NCI-H460) was > 10 µM (inactive) and the GI50 (MDA-MB-231) was > 10 µM (inactive). The GI50 (SR) was > 10 µM (inactive), the GI50 (MDA-N) was > 10 µM (inactive) and the GI50 (HT-29) was > 10 µM (inactive). The GI50 (ACHN) was > 10 µM (inactive), the GI50 (SF-295) was > 10 µM (inactive) and the GI50 (UACC-62) was > 10 µM (inactive). The GI50 (SW-620) was > 10 µM (inactive), the GI50 (SNB-75) was > 10 µM (inactive) and the GI50 (OVCAR-3) was > 10 µM (inactive). For the same compound, the GI50 (CAKI-1) was > 10 µM (inactive), the GI50 (U-251) was > 10 µM (inactive) and the GI50 (COLO 205) was > 10 µM (inactive). The GI50 (HCC 2998) was > 10 µM (inactive), the GI50 (MCF7) was > 10 µM (inactive) and the GI50 (TK-10) was > 10 µM (inactive). For the same compound, the GI50 (HOP-92) was > 10 µM (inactive), the GI50 (IGROV-1) was > 10 µM (inactive) and the GI50 (SK-MEL-28) was > 10 µM (inactive). The GI50 (Hs-578T) was > 10 µM (inactive), the GI50 (RPMI-8226) was > 10 µM (inactive) and the GI50 (MDA-MB-435) was > 10 µM (inactive). The GI50 (OVCAR-8) was > 10 µM (inactive), the GI50 (HCT-15) was over 10 µM and the GI50 (NCI/ADR-RES) was > 10 µM (inactive). For the same compound, the GI50 (NCI-H226) was > 10 µM (inactive), the GI50 (SNB-19) was > 10 µM (inactive) and the GI50 (M14) was > 10 µM (inactive). The GI50 (DU-145) was > 10 µM (inactive), the GI50 (HL-60) was > 10 µM (inactive) and the GI50 (HOP-62) was > 10 µM (inactive). For the same compound, the GI50 (OVCAR-5) was > 10 µM (inactive), the GI50 (NCI-H522) was > 10 µM (inactive) and the GI50 (A549) was > 10 µM (inactive). For the same compound, the GI50 (KM12) was > 10 µM (inactive), the GI50 (RXF 393) was > 10 µM (inactive) and the GI50 (SK-MEL-2) was > 10 µM (inactive). For the same compound, the GI50 (EKVX) was > 10 µM (inactive), the GI50 (T47D) was > 10 µM (inactive) and the GI50 (HCT-116) was > 10 µM (inactive). The GI50 (NCI-H23) was > 10 µM (inactive), the GI50 (UACC-257) was > 10 µM (inactive) and the GI50 (SK-MEL-5) was > 10 µM (inactive). For the same compound, the GI50 (Malme-3M) was > 10 µM (inactive), the GI50 (786-0) was > 10 µM (inactive) and the GI50 (MOLT-4) was > 10 µM (inactive). For the same compound, the GI50 (PC-3) was > 10 µM (inactive).
`COc1cc(/C=C/C(=N\NS(=O)(=O)c2ccc(C)cc2)c2sc(NNC(C)=O)nc2C)ccc1O` was tested, and the GI50 (LOX IMVI) was > 100 µM (inactive), the GI50 (SF-539) was > 100 µM (inactive) and the GI50 (CCRF-CEM) was > 100 µM (inactive). The GI50 (BT-549) was > 100 µM (inactive), the GI50 (OVCAR-4) was > 100 µM (inactive) and the GI50 (SK-OV-3) was > 100 µM (inactive). The GI50 (SN12C) was > 100 µM (inactive), the GI50 (A498) was > 100 µM (inactive) and the GI50 (SF-268) was > 100 µM (inactive). For the same compound, the GI50 (NCI-H460) was > 100 µM (inactive), the GI50 (MDA-MB-231) was 69.2 µM (inactive) and the GI50 (SR) was > 100 µM (inactive). The GI50 (MDA-N) was > 100 µM (inactive), the GI50 (HT-29) was > 100 µM (inactive) and the GI50 (ACHN) was > 100 µM (inactive). For the same compound, the GI50 (SF-295) was > 100 µM (inactive), the GI50 (UACC-62) was > 100 µM (inactive) and the GI50 (SW-620) was > 100 µM (inactive). The GI50 (SNB-75) was > 100 µM (inactive), the GI50 (OVCAR-3) was > 100 µM (inactive) and the GI50 (CAKI-1) was > 100 µM (inactive). For the same compound, the GI50 (U-251) was > 100 µM (inactive), the GI50 (COLO 205) was > 100 µM (inactive) and the GI50 (HCC 2998) was > 100 µM (inactive). For the same compound, the GI50 (MCF7) was > 100 µM (inactive), the GI50 (TK-10) was > 100 µM (inactive) and the GI50 (HOP-92) was > 100 µM (inactive). For the same compound, the GI50 (IGROV-1) was > 100 µM (inactive), the GI50 (SK-MEL-28) was > 100 µM (inactive) and the GI50 (Hs-578T) was > 100 µM (inactive). For the same compound, the GI50 (RPMI-8226) was > 100 µM (inactive), the GI50 (MDA-MB-435) was > 100 µM (inactive) and the GI50 (OVCAR-8) was > 100 µM (inactive). For the same compound, the GI50 (HCT-15) was over 100 µM, the GI50 (NCI/ADR-RES) was > 100 µM (inactive) and the GI50 (NCI-H226) was > 100 µM (inactive). For the same compound, the GI50 (SNB-19) was > 100 µM (inactive), the GI50 (M14) was > 100 µM (inactive) and the GI50 (DU-145) was > 100 µM (inactive). The GI50 (HL-60) was > 100 µM (inactive), the GI50 (HOP-62) was > 100 µM (inactive) and the GI50 (OVCAR-5) was > 100 µM (inactive). For the same compound, the GI50 (NCI-H522) was > 100 µM (inactive), the GI50 (A549) was > 100 µM (inactive) and the GI50 (KM12) was > 100 µM (inactive). The GI50 (RXF 393) was > 100 µM (inactive), the GI50 (SK-MEL-2) was > 100 µM (inactive) and the GI50 (EKVX) was > 100 µM (inactive). For the same compound, the GI50 (T47D) was > 100 µM (inactive), the GI50 (HCT-116) was > 100 µM (inactive) and the GI50 (NCI-H23) was > 100 µM (inactive). For the same compound, the GI50 (UO-31) was > 100 µM (inactive), the GI50 (UACC-257) was > 100 µM (inactive) and the GI50 (SK-MEL-5) was > 100 µM (inactive). For the same compound, the GI50 (Malme-3M) was > 100 µM (inactive), the GI50 (786-0) was > 100 µM (inactive) and the GI50 (MOLT-4) was > 100 µM (inactive). The GI50 (PC-3) was > 100 µM (inactive).
